Experiments:
[1] = target: T1, recombinant homomeric hASIC1a channels (Homo sapiens, UniProt P78348); experiment: Two-electrode voltage clamp in Xenopus laevis oocytes expressing gated ion channels (Example 4); assay type: cell-based; conditions: Table 2; generated using oocytes as in Example 4
T1 construct: expressed in transfected cells; host or cells: Xenopus laevis oocytes (nuclear microinjection of expression vector such as pcDNA3)
T1 sequence (P78348 1-528): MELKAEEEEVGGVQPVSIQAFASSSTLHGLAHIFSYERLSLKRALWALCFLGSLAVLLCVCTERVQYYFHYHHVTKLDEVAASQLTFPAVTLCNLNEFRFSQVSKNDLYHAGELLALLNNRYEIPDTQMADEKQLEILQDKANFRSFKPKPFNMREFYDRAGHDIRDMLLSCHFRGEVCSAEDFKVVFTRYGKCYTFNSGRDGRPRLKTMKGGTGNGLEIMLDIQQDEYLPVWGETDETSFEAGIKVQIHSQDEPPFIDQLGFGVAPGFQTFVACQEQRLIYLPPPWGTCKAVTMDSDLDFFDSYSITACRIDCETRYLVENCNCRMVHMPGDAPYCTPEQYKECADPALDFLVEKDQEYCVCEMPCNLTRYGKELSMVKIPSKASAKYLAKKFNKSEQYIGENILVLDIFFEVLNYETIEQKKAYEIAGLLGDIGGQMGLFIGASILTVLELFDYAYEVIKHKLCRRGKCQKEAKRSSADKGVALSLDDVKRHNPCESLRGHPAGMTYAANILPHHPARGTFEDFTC

[2] = tested on: acute paw inflammation caused by intraplantar injection of λ-carrageenan; experiment: Carrageenan model for pain (Example 8); assay type: in vivo; conditions: rat; 30 and 100 mg/kg SC, 30 min prior to carrageenan; 4 h post-carrageenan
Protocol: Acute inflammatory hyperalgesia is induced in rats by unilateral injection of 150 μl of a 3% solution of λ-carrageenan into the plantar surface of the left hind paw 3-5 hours prior to testing. Thermal hyperalgesia, mechanical allodynia, mechanical hyperalgesia, weight bearing asymmetry and paw inflammation were determined. Rats are pretreated with test compounds either administered intravenously (IV), by subcutaneous injection (SC) or by oral gavage (PO).
Thermal nociceptive thresholds are determined according to the method described elsewhere (Hargreaves et al., 1988). Briefly, through the glass surface, a radiant heat source (8V, 50 W projector bulb) is focused onto the plantar surface of the hind paw. The rat's paw-withdrawal latency to this stimulus is recorded to the nearest 0.1 s. Each latency score is an average of three trials, which are separated by at least 5 min. In all rats, both the injured and uninjured hind paws are similarly tested, allowing direct comparisons between inflamed and non-inflamed paws. […]
Mechanical hyperalgesia is determined by measuring the difference of withdrawal thresholds in response to increasing pressure in the inflamed vs contralateral paw using the Randall-Sellito Paw pressure meter (IITC Life Science) (Randall L O and Sellito J J., 1957). Briefly, rats are held in a contention jacket suspended by a stand and allowed to acclimate for 10 min. Then the tips of the paw pressure applicator are positioned close to the middle of the plantar and the dorsal area of the paw, avoiding the saphenous nerve innervations and an increasing pressure is applied until the rat removes it. Measures are performed in triplicate for each paw by alternating each paw with an interval of at least 1 min to avoid sensitization. […]
Carrageenan induced paw oedema is measured with a plethysmometer (IITC Life Science). Briefly, a mark is made on the ankles of the rat and the ipsi and contralateral paw are submerged 3 times into water up to the mark in order to determine the paw volume by calculation of water displacement.

| SMILES | IC50 [1] [µM] | further results |
| --- | --- | --- |
| COc1ccc2cc(CN3CCC(Oc4cc(C)nc5c(F)cccc45)CC3)ccc2c1 [Compound 87] | 10.1 to 20 |  |
| c1ccc(CN2CCC(Oc3c4ccccc4nc4ccccc34)CC2)cc1 [Compound 89] | > 30 |  |
| Cc1cc(OC2CCN(Cc3ccc(O)c(C(=O)O)c3)CC2)c2cccc(F)c2n1 [Compound 90] | ≥ 30 |  |
| COc1cccc2c(OC3CCN(Cc4ccccc4C#N)CC3)cc(C)nc12 [Compound 91] | > 30 |  |
| Cc1cc(OC2CCN(Cc3cccc(C(=O)O)c3)CC2)c2cc(O)ccc2n1 [Compound 92] | > 30 |  |
| Cc1cc(OC2CCN(Cc3ccc(C(=O)O)cc3)CC2)c2cc(O)ccc2n1 [Compound 96] | > 30 |  |

More lines, main results first:

| IC50 [1] [µM] | SMILES | further results |
| --- | --- | --- |
| 0.1 to 10 | Cc1cc(OC2CCN(Cc3ccc(O)c(O)c3)CC2)c2ccccc2n1 [Compound 88] |  |
| 20.1 to 30 | COc1cccc2c(OC3CCN(Cc4ccccc4-c4nnn[nH]4)CC3)cc(C)nc12 [Compound 93] |  |
| 0.1 to 10 | Cc1cc(OC2CCN(Cc3ccccc3-c3nnn[nH]3)CC2)c2cc(F)ccc2n1 [Compound 94, 4-(1-(2-(1H-tetrazol-5-yl)benzyl)piperidin-4-yloxy)-6-fluoro-2-methylquinoline] | mechanical hyperalgesia [2]: dose-dependently reversed; size of the inflammation [2]: reduced; thermal hyperalgesia [2]: dose-dependently reversed |
| 0.1 to 10 | COc1ccc(F)c2c(OC3CCN(Cc4ccccc4-c4nnn[nH]4)CC3)cc(C)nc12 [Compound 95] |  |
| 0.1 to 10 | Cc1cc(OC2CCN(Cc3ccccc3-c3nnn[nH]3)CC2)c2cc(Cl)ccc2n1 [Compound 100] |  |
